# Read-outs that look alike come from different tables or passages of the source.
# Columns and labels:
# [1] = system: PC3M-GFP-PTB cells; experiment: PNC prevalence / PNC disassembly in PC3M-GFP-PTB cells; format: cell-based, human
# Description: FIG. 1 is a graph showing the concentration-response curve against PNC prevalence in PC3M (a metastatic prostate cancer cell line)-GFP (green fluorescent protein)-PTB (polypyrimidine tract-binding protein) cells (squares, PC3M, has a PNC prevalence of 75-85% in the absence of treatment) and cytotoxicity as measured by cellular ATP (CELLTITER GLO™) (circles). Representative PTB-GFP images for cells at the indicated concentrations (arrowheads indicate PNCs) (scale bar=5 μm) are shown in the three panels above the graph. The relative signal (%) is along the y-axis and Metarrestin [log M] is along the x-axis.
# A metastatic prostate cancer cell line, PC3M, was developed in order to screen small molecules that effectively disassemble PNCs (see Pettaway, et al., “Selection of highly metastatic variants of different human prostatic carcinomas using orthotopic implantation in nude mice,” Clin. Cancer Res., (2): 1627-36 (1996), incorporated herein in its entirety). PC3M has a […] stably express GFP-PTB (polypyrimidine track binding protein) (FIG. 1, top panels), an essential component of PNCs (see Huang, et al., “The perinucleolar compartment and transcription,” Journal of Cell Biology, (143): 35-47 (1998), incorporated herein in its entirety). Compounds able to reduce PNC prevalence by 50% were filtered in secondary assays to eliminate those that induced apoptosis, DNA damage, generic cytotoxicity, or cell-cycle blockage (see Norton, et al., “Automated high-content screening for compounds that disassemble the perinucleolar compartment,” J Biomol Screen, (14): 1045-53 (2009) and Frankowski, et al., “Discovery and Development of Small Molecules That Reduce PNC Prevalence, in Probe Reports from the NIH Molecular Libraries Program, Bethesda (Md.).(2010), incorporated herein in their entirety). The remaining hits were evaluated for invasion inhibition through MATRIGEL gelatinous protein mixture and anchorage-independent growth inhibition using soft agar assays.
# [2] = system: PC3M cells overexpressing eEF1A2; experiment: PNC disassembly in eEF1A2-overexpressing cells; format: cell-based; conditions: vs control vector
# Description: FIG. 39 is a graph showing that overexpression of eEF1A2 in PC3M cells increased the IC50 of metarrestin for PNC disassembly. PNC prevalence (%) is on the y-axis and the log [M] metarrestin is on the […]. eEF1A2 is shown by circles and the control vector is shown by squares.
# eEF1As are multi-functional proteins, implicated in translation elongation, actin bundling, nuclear transport, and tRNA export. To evaluate whether eEF1A mediates the effect of metarrestin on cancer cells, eEF1A was either overexpressed or reduced through siRNA silencing. […] Thus, eEF1A2 enhances PNC structures, but is alone not sufficient to induce significant formation of PNCs in PNC-negative cells. To evaluate the functional link between the phenotype of metarrestin-induced PNC disassembly and eEF1A2, PNC disassembly in wild type and eEF1A2-overexpressing cancer cells was analyzed. Cells with and without over expression of eEF1A2-HA (48 hours after transfection with an efficiency at around 70%, FIGS. 61 and 64) were treated with metarrestin at 10 concentrations, and PNC prevalence was evaluated at 63× magnification. […] To evaluate whether eEF1A2 indeed regulates the metastatic phenotype, PANC1 cells with (PANC1 eEF1A2 O.E.) or without (PANC1 control) overexpression of eEF1A2 were orthotopically injected into NSG mice. Six weeks after implantation, organs were subjected to histopathological evaluation.
# [3] = system: PANC1, PC3M, and HeLa; experiment: DNA damage response, cell cycle and apoptosis; format: cell-based
# Procedure: Genotoxic agents that intercalate into or alkylate DNA, such as actinomycin D, induce similar nucleolar segregation to that observed with metarrestin treatment. To determine whether metarrestin induces nucleolar changes through genotoxic effects or general cytotoxicity, the impact of metarrestin on DNA damage repair, cell cycle, and general Pol II transcription status in three cell lines, PANC1, PC3M, and HeLa, was evaluated. […]
# [4] = system: RPA194 and UBF; experiment: Western blot of RPA194 and UBF; format: cell-based; conditions: 1 μM, 24 hours, PANC1, PC3M, and HeLa
# Procedure: Western blots were performed according to the manufacturer's protocols (Li-COR). Transfer membrane was from Millipore (cat. no. IPFL00010). The primary antibodies used were phospho-γ H2AX (Upstate 07-164, rabbit, 1:1000); p53 (Santa Cruz Biotechnology sc-6243 rabbit 1:500); UBF (F-9) (Santa Cruz Biotechnology, mouse, 1:500); RPA194 (Santa Cruz Biotechnology, sc-48385, mouse, 1:500); p53BP1 (Novus, NB100-304, rabbit 1:10,000); EF1a (Millipore 05-235, mouse, 1:1000), HA-Tag (C29F4, Cell Signaling, rabbit 1:1000) and actin (Sigma A5060, rabbit, 1:3000, A4700, mouse, 1:1000) as a loading control. LI-COR IRDye secondary antibodies (1:10,000), goat anti-mouse-680RD (926-68070), goat anti-mouse-800CW (926-32210), goat-anti-rabbit-680RD (926-68071), goat-anti-rabbit-800CW (926-32211) were used for visualization. Protein bands were detected using LI-COR Odyssey Image Studio (LI-COR Biosciences).
# Psoralen crosslinks active accessible DNA under UV light without displacing nucleosomes or transcription factors, or changing chromatin states. Psoralen-crosslinked DNA moves slower on agarose gel and can be distinguished from the non-crosslinked DNA by Southern blots. […] To examine the interactions between Pol I transcription factors and rDNA, quantitative ChIP experiments were carried out using primer sets across promoter and coding regions of rDNA (FIG. 29-30E).
compound,measurement,setting,value
N=c1c2c(-c3ccccc3)c(-c3ccccc3)n(Cc3ccccc3)c2ncn1[C@H]1CC[C@H](O)CC1 [metarrestin],PNC disassembly and nucleolar distortion,[1]; 1 μM,~100%
same,IC90,"[1]; Homo sapiens, FIG. 1",750 nM
same,IC50,"[1]; Homo sapiens, P3CM cells, read-out: PNC disassembling IC50",390 nM
same,IC50,"[1]; Homo sapiens, PC3M-GFP-PTB cells, read-out: IC50 for disruption of PNCs",390 nM
same,IC100,"[1]; PC3M cells, 24 hours",1 µM
same,IC50 for PNC disassembly with increased expression of eEF1A2,[2],increased the inhibitory concentration 50 (IC50)
same,"Apoptotic index, cells undergoing apoptosis",[3],less than 1%
same,DNA damage response signature factors,"[3]; 1 μM, 24 hours","neither phosphorylated yH2AX or p53BP1, nor phosphorylated p53"
same,"Cell cycle pattern (DNA content, flow cytometry)",[3]; two different concentrations within 24 hours,did not show a significant alteration of cell cycle pattern
same,Amounts of Pol I large subunit RPA194 and UBF,[4],did not change significantly

# — patent publication US20210186972A1, “FORMULATIONS AND METHODS FOR THE PREVENTION AND TREATMENT OF TUMOR METASTASIS AND TUMORIGENESIS” (THE UNITED STATES OF AMERICA, AS REPRESENTED BY THE …, priority 2018, published 2021)
